Assay results reported in ChEMBL document CHEMBL1201862, “PubChem BioAssay data set” (2004).
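A five-concentration, 48-hour dose response in 96-well plates underlies each endpoint, interpolated linearly between surrounding concentrations. GI50 marks 50% less growth.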 Activity calls are given as the source filed them. Cut-off read from the data, not from the text of the source: active = GI50 up to about 1.1 µM and inactive = higher.

Columns and labels:
Assay in all cases: DTP human tumour cell line panel, 48 h
[1] = tested on: 786-0
[2] = tested on: SK-OV-3
[3] = tested on: MDA-MB-231
[4] = tested on: HCT-15
[5] = tested on: Hs-578T
[6] = tested on: A549
[7] = tested on: Malme-3M
[8] = tested on: COLO 205
[9] = tested on: CAKI-1
[10] = tested on: NCI-H226
[11] = tested on: DU-145
[12] = tested on: UACC-62
[13] = tested on: MOLT-4
[14] = tested on: HL-60
[15] = tested on: SK-MEL-5
[16] = tested on: K562
[17] = tested on: LOX IMVI
[18] = tested on: SN12C
[19] = tested on: OVCAR-5
[20] = tested on: RXF 393

Row | SMILES | GI50 [1] | GI50 [2] | GI50 [3] | GI50 [4] [µM] | GI50 [5] | GI50 [6] | GI50 [7] | GI50 [8] | GI50 [9] | GI50 [10] | GI50 [11] | GI50 [12] | GI50 [13] | GI50 [14] | GI50 [15] | GI50 [16] | GI50 [17] | GI50 [18] | GI50 [19] | GI50 [20]
1 | CC(=O)Nc1ccc(-c2cc(C(=O)O)c3cc4ccccc4cc3n2)cc1 | > 100 µM (inactive) | > 100 µM (inactive) | > 100 µM (inactive) | > 100 | > 100 µM (inactive) | > 100 µM (inactive) | > 100 µM (inactive) | > 100 µM (inactive) | > 100 µM (inactive) | > 100 µM (inactive) | > 100 µM (inactive) | > 100 µM (inactive) | > 100 µM (inactive) | > 100 µM (inactive) | > 100 µM (inactive) | > 100 µM (inactive) | > 100 µM (inactive) | > 100 µM (inactive) | > 100 µM (inactive) | > 100 µM (inactive)
2 | Fc1cccc(Cl)c1/C=N\N=C1c2ccccc2-c2ccccc21 | > 100 µM (inactive) | > 100 µM (inactive) | 90.4 µM (inactive) | 75.2 | 34.3 µM (inactive) | 70 µM (inactive) | 76.7 µM (inactive) | > 100 µM (inactive) | > 100 µM (inactive) | > 100 µM (inactive) | > 100 µM (inactive) | > 100 µM (inactive) | 66.4 µM (inactive) | > 100 µM (inactive) | > 100 µM (inactive) | > 100 µM (inactive) | > 100 µM (inactive) | > 100 µM (inactive) | > 100 µM (inactive) | > 100 µM (inactive)
3 | COc1ccc(/C(Nc2ccccc2)=C(\CCl)c2ccccc2)cc1OC | 55.8 µM (inactive) | > 100 µM (inactive) | 50.4 µM (inactive) | 40.7 | > 100 µM (inactive) | 44.6 µM (inactive) | 37.2 µM (inactive) | 71.6 µM (inactive) | > 100 µM (inactive) | 30.9 µM (inactive) | 86.3 µM (inactive) | 99.1 µM (inactive) | 29.6 µM (inactive) | 18.9 µM (inactive) | 22.2 µM (inactive) | 15.7 µM (inactive) | 10.1 µM (inactive) | 36.7 µM (inactive) | > 100 µM (inactive) | 83.8 µM (inactive)
4 | CCOc1ccc(/C(C=O)=C(\Cl)c2ccc(OC)cc2)cc1 | > 100 µM (inactive) | > 100 µM (inactive) | > 100 µM (inactive) | 28.6 | 34.4 µM (inactive) | 18.2 µM (inactive) | > 70.5 µM (inactive) | > 51.5 µM (inactive) | > 40 µM (inactive) | > 100 µM (inactive) | > 100 µM (inactive) | > 51.9 µM (inactive) | 5.48 µM (inactive) | 14.6 µM (inactive) | 41.7 µM (inactive) | 12.5 µM (inactive) | 14.2 µM (inactive) | > 100 µM (inactive) | > 100 µM (inactive) | > 100 µM (inactive)
5 | CCCCNCC(=O)O[C@]1(CC)C(=O)OCc2c1cc1n(c2=O)Cc2cc3ccccc3nc2-1 | 0.0482 µM (active) | 0.658 µM (active) | 29.9 µM (inactive) | 2.15 | 31.9 µM (inactive) | 0.185 µM (active) | 2.84 µM (inactive) | 1.7 µM (inactive) | 0.0647 µM (active) | 0.105 µM (active) | 0.0482 µM (active) | 0.0578 µM (active) | 0.017 µM (active) | 0.084 µM (active) | 0.277 µM (active) | 0.476 µM (active) | 0.0721 µM (active) | 0.0622 µM (active) | 0.535 µM (active) | 0.385 µM (active)
6 | O=c1cc(/N=N\c2ccc(Cl)c(Cl)c2)[nH]c(=O)[nH]1 | 1.51 µM (inactive) | 15.8 µM (inactive) | 1.85 µM (inactive) | 1.72 | 2.57 µM (inactive) | 15.3 µM (inactive) | 2.23 µM (inactive) | 1.81 µM (inactive) | 2.07 µM (inactive) | 15.1 µM (inactive) | 2.94 µM (inactive) | 2.01 µM (inactive) | 1.97 µM (inactive) | 0.292 µM (active) | 4.89 µM (inactive) | 0.977 µM (active) | 1.76 µM (inactive) | 2.11 µM (inactive) | 4.85 µM (inactive) | 1.77 µM (inactive)
7 | COc1ccc(-n2c(Cn3nnc(-c4cccnc4)n3)nn(C3OC(COC(=O)c4ccccc4)C(OC(=O)c4ccccc4)C3OC(=O)c3ccccc3)c2=S)cc1 (stereo not given) | > 100 µM (inactive) | > 100 µM (inactive) | 49 µM (inactive) | > 100 | > 100 µM (inactive) | > 100 µM (inactive) | > 100 µM (inactive) | > 100 µM (inactive) | > 100 µM (inactive) | 14.2 µM (inactive) | > 100 µM (inactive) | > 100 µM (inactive) | > 100 µM (inactive) | > 100 µM (inactive) | > 100 µM (inactive) | > 100 µM (inactive) | > 100 µM (inactive) | > 100 µM (inactive) | > 100 µM (inactive) | > 100 µM (inactive)
8 | OCCOCn1nncc1Cn1ncc2c(SCc3ccccc3)ncnc21 | 34.7 µM (inactive) | > 100 µM (inactive) | > 100 µM (inactive) | 57.3 | > 100 µM (inactive) | > 100 µM (inactive) | > 100 µM (inactive) | > 100 µM (inactive) | > 100 µM (inactive) | > 100 µM (inactive) | > 100 µM (inactive) | > 100 µM (inactive) | 6.19 µM (inactive) | 16.5 µM (inactive) | > 100 µM (inactive) | 37.7 µM (inactive) | 35.5 µM (inactive) | 59.4 µM (inactive) | > 100 µM (inactive) | > 100 µM (inactive)
9 | S=C(/N=C1/NCC(CN2CCN(c3ccccc3)CC2)O1)Nc1ccccc1 (stereo not given) | 76.7 µM (inactive) | > 100 µM (inactive) | 35.9 µM (inactive) | 32.4 | > 100 µM (inactive) | 61 µM (inactive) | > 100 µM (inactive) | 28.6 µM (inactive) | 73.3 µM (inactive) | > 100 µM (inactive) | 56.9 µM (inactive) | 39.7 µM (inactive) | 27.5 µM (inactive) | 29 µM (inactive) | 35.3 µM (inactive) | 35.2 µM (inactive) | 25 µM (inactive) | > 100 µM (inactive) | > 100 µM (inactive) | 39.8 µM (inactive)
10 | COC(=O)/C=C(/C(=O)OC)c1c(C)c(C)c2c(C)cc(C)cc(C)c1-2 | > 100 µM (inactive) | 18.2 µM (inactive) | 18.1 µM (inactive) | 8.85 | 8.99 µM (inactive) | 20.6 µM (inactive) | 28.4 µM (inactive) | 29.4 µM (inactive) | 27.4 µM (inactive) | 13.3 µM (inactive) | 36.9 µM (inactive) | 8.39 µM (inactive) | > 100 µM (inactive) | > 100 µM (inactive) | 12.6 µM (inactive) | > 100 µM (inactive) | 28.7 µM (inactive) | 38.8 µM (inactive) | 19.1 µM (inactive) | 26.9 µM (inactive)
11 | CCC/N=C/c1cc(Cc2ccc(O)c(/C=N/CCC)c2)ccc1O | 12.8 µM (inactive) | 18.5 µM (inactive) | 9.89 µM (inactive) | 3.33 | 16 µM (inactive) | 17 µM (inactive) | 19.5 µM (inactive) | 16.1 µM (inactive) | 21.1 µM (inactive) | 8.43 µM (inactive) | 4.61 µM (inactive) | 5.53 µM (inactive) | 1.54 µM (inactive) | 2.21 µM (inactive) | 5.51 µM (inactive) | 1.69 µM (inactive) | 3.17 µM (inactive) | 3.82 µM (inactive) | 18.4 µM (inactive) | 16.3 µM (inactive)
12 | O=c1[nH]c2cc3cccnc3c(Cl)c2nc1C(F)(F)F | 72.4 µM (inactive) | 57.3 µM (inactive) | 30.3 µM (inactive) | 44.5 | 58.1 µM (inactive) | 41.4 µM (inactive) | 77.8 µM (inactive) | 36.4 µM (inactive) | 21.2 µM (inactive) | 30.1 µM (inactive) | 54.8 µM (inactive) | 22 µM (inactive) | 23.6 µM (inactive) | 32.9 µM (inactive) | 14.5 µM (inactive) | 29.7 µM (inactive) | 32.4 µM (inactive) | 75.5 µM (inactive) | > 100 µM (inactive) | 46.7 µM (inactive)
13 | CCC(C)N1CN(c2ccccc2)C2(CCN(CCCC3(c4ccc(F)cc4)OCCO3)CC2)C1=O (stereo not given) | 5.53 µM (inactive) | 21 µM (inactive) | 13.4 µM (inactive) | 4.75 | 6.15 µM (inactive) | 7.73 µM (inactive) | 5.19 µM (inactive) | 3.75 µM (inactive) | > 52 µM (inactive) | 16.7 µM (inactive) | 17.6 µM (inactive) | 23.3 µM (inactive) | 2.61 µM (inactive) | 6.47 µM (inactive) | 3.88 µM (inactive) | 8.24 µM (inactive) | 7.73 µM (inactive) | 7.24 µM (inactive) | 8.61 µM (inactive) | 13 µM (inactive)
14 | CC1(C)C2CCC1(CC(=O)O)C(Cl)C2 (stereo not given) | > 100 µM (inactive) | > 100 µM (inactive) | > 100 µM (inactive) | > 100 | > 100 µM (inactive) | > 100 µM (inactive) | > 100 µM (inactive) | > 100 µM (inactive) | > 100 µM (inactive) | > 100 µM (inactive) | > 100 µM (inactive) | > 100 µM (inactive) | > 100 µM (inactive) | > 100 µM (inactive) | > 100 µM (inactive) | > 100 µM (inactive) | > 100 µM (inactive) | > 100 µM (inactive) | > 100 µM (inactive) | > 100 µM (inactive)
